Columns and labels:
[1] = test system: lymphoma EL-4 or melanoma B16; test: Further antitumor trials in tumor-bearing mice (tumor type not specified); assay type: in vivo, C57BL/6 mice; settings: treatment begun 1 week before tumor implantation
Procedure: Experimental procedures. Briefly, suspension of lymphoma EL-4 or melanoma B16 cells (10^6 cells) was injected subcutaneously into the footpad of C57BL/6 mice. […] Solution of the preparation in phosphate buffer saline (PBS) was administered i.v. or p.o. Single dosage for p.o. administration was of 1 mg/kg in weight, and of 0.5 mg/kg in weight when administered i.v. […] Besides, some tumor-bearing mice were treated with the preparation encapsulated in liposomes consisting of phosphatidylcholine:phosphatudylserine mixture (7:3).
(§1) Liposomal C7H15MDP in dose of 0.25 mg/kg was administered i.v. by the same schedule that was used with unencapsulated preparation.
However, all methods of administration (p.o., i.v., liposomal i.v.) seem to be rational. Exact administration method is to be defined individually taking into account localization and type of tumor and other factors.

[2] = test system: melanoma B16; test: Antitumor activity in the mouse melanoma B16 model; assay type: in vivo, C57BL/6 mice; settings: for Inhibition of tumor growth: day 21
Procedure: (§2) Experimental procedures. Briefly, suspension of lymphoma EL-4 or melanoma B16 cells (10^6 cells) was injected subcutaneously into the footpad of C57BL/6 mice. Then mice underwent course of C7H15MDP treatment. Solution of the preparation in phosphate buffer saline (PBS) was administered i.v. or p.o. Single dosage for p.o. administration was of 1 mg/kg in weight, and of 0.5 mg/kg in weight when administered i.v. The preparation was administered twice a week during 3 weeks, beginning immediately after implantation of tumor cells. Besides, some tumor-bearing mice were treated with the preparation encapsulated in liposomes consisting of phosphatidylcholine:phosphatudylserine mixture (7:3).
as §1
(§3) Control mice were treated with PBS without active compound.
(§4) Antitumor effect was estimated using the following criteria: (1) prolongation of life-span, (2) inhibition of tumor growth.

[3] = cholesterol/phosphatidylcholine model lipid membrane
[4] = test system: IL-1; test: IL-1 production by peritoneal macrophages, read out by thymocyte proliferation; assay type: cell-based, C57BL/6 mouse; settings: control 1.3±0.4
Excerpt: (§5) Each value in the table is the mean ± S.D. of three independent experiments.

[5] = test system: mouse splenocytes; test: LPS-induced proliferation of mouse splenocytes; assay type: cell-based; settings: LPS stimulation 1 µg/ml, mean ± S.D. of three experiments, control 3.4±0.2
Procedure: Each value in the table is the index of proliferation of lymphocytes in response to stimulation of 1 µg/ml under the influence of MDP derivatives (arithmetical mean ± S.D. of three independent experiments).

[6] = Distribution of 14C-labelled preparations in the water/chloroform model membrane; assay type: physicochemical
Excerpt: Marked differences in distribution of 14C-labelled preparations in the phases of this model "membrane" have been found. 64% of C7H15MDP was included in the water phase, and 36% of the preparation in the organic phase. At the same time, the water phase included only 28% of its lipophilic homologue, and the organic phase 72%.

[7] = test system: lymphocytes in a mixed lymphocyte culture (MLC); test: Proliferation of lymphocytes in a mixed lymphocyte culture (MLC); assay type: cell-based; settings: mean ± S.D. of six experiments, control 11.9±0.9
Excerpt: Each value in the table is the mean index of proliferation stimulation of lymphocytes in MLC ± S.D. of six independent experiments.

[8] = test system: TNF; test: TNF production by peritoneal macrophages, read out by lysis of L929 cells; assay type: cell-based, C57BL/6 mouse; settings: control 7±6
Excerpt: as §5

[9] = test system: lymphoma EL-4; test: Antitumor activity in the mouse lymphoma EL-4 model; assay type: in vivo, C57BL/6 mice; settings: for Inhibition of tumor growth: day 21
Procedure: as §2, §1, §3, §4

[10] = test system: human erythroleukemia K562 cells
[11] = i.v., 0.5 mg/kg twice a week during 3 weeks
[12] = p.o., 1 mg/kg twice a week during 3 weeks

Structure (SMILES) | time at which the preparation appeared in the second water phase [3] [h] | Proliferation of tymocytes cultured with samples of IL-1 (index of proliferation) ([4]; 5 µM) | Proliferation of tymocytes cultured with samples of IL-1 (index of proliferation) ([4]; 10 µM) | Proliferation of tymocytes cultured with samples of IL-1 (index of proliferation) ([4]; 20 µM) | index of proliferation of lymphocytes ([5]; 5 µM) | index of proliferation of lymphocytes ([5]; 10 µM) | index of proliferation of lymphocytes ([5]; 20 µM) | share of preparation included in the organic phase [6] [%] | share of preparation included in the water phase [6] [%] | mean index of proliferation stimulation of lymphocytes in MLC ([7]; 5 µM) | mean index of proliferation stimulation of lymphocytes in MLC ([7]; 10 µM) | mean index of proliferation stimulation of lymphocytes in MLC ([7]; 20 µM) | Cytosis of L929 cells by samples of TNF ([8]; 5 µM) [%] | Cytosis of L929 cells by samples of TNF ([8]; 10 µM) [%] | Cytosis of L929 cells by samples of TNF ([8]; 20 µM) [%] | other results
CCCCCCCO[C@@H]1O[C@H](CO)[C@@H](O)[C@H](O[C@H](C)C(=O)N[C@@H](C)C(=O)N[C@H](CCC(=O)O)C(N)=O)[C@H]1NC(C)=O [C7H15MDP, β-heptylglycoside-MDP] | 24 | 3.8±0.2 | 3.9±0.2 | 4.8±0.2 | 4.4±0.3 | 4.6±0.3 | 4.4±0.3 | 36 | 64 | 14.5±0.9 | 16.4±0.6 | 15.9±1.4 | 41±2 | 57±8 | 62±5 | tumor regression [1]: complete regression of tumor was observed in several cases; Prolongation of life-span [2, 11]: 101%; Mean life-span ([2]; i.v., 0.5 mg/kg twice a week during 3 weeks, control (PBS i.v.) 36±3): 74 ± 9 days; Tumor node volume at the day 21 after tumor inoculation ([2]; i.v., 0.5 mg/kg, control (PBS i.v.) 736±51): 494±49 mm^3; Inhibition of tumor growth ([2]; i.v., 0.5 mg/kg): 33%; Prolongation of life-span [2, 12]: 70%; Mean life-span ([2]; p.o., 1 mg/kg twice a week during 3 weeks, control (PBS p.o.) 30±4): 51 ± 5 days; Tumor node volume at the day 21 after tumor inoculation ([2]; p.o., 1 mg/kg, control (PBS p.o.) 765±69): 571±65 mm^3; Inhibition of tumor growth ([2]; p.o., 1 mg/kg): 25%; time to reach a state of equilibrium between concentrations in water phases from both sides of the model membrane ([3]; first to reach equilibrium): 72 h; Prolongation of life-span [9, 11]: 62%; Mean life-span ([9]; i.v., 0.5 mg/kg twice a week during 3 weeks, control (PBS i.v.) 39±4): 63 ± 5 days; Tumor node volume at the day 21 after tumor inoculation ([9]; i.v., 0.5 mg/kg, control (PBS i.v.) 789±64): 463±52 mm^3; Inhibition of tumor growth ([9]; i.v., 0.5 mg/kg): 41%; Prolongation of life-span [9, 12]: 19%; Mean life-span ([9]; p.o., 1 mg/kg twice a week during 3 weeks, control (PBS p.o.) 42±6): 50 ± 7 days; Tumor node volume at the day 21 after tumor inoculation ([9]; p.o., 1 mg/kg, control (PBS p.o.) 842±78): 650±73 mm^3; Inhibition of tumor growth ([9]; p.o., 1 mg/kg): 23%
CCCCCCCCCCCCCCCCO[C@@H]1O[C@H](CO)[C@@H](O)[C@H](O[C@H](C)C(=O)N[C@@H](C)C(=O)N[C@H](CCC(=O)O)C(N)=O)[C@H]1NC(C)=O [C16H33MDP, β-hexadecylglycoside-MDP] | 1 | 3.8±0.1 | 3.9±0.4 | 3.9±0.1 | 3.0±0.1 | 2.6±0.3 | 3.0±1.0 | 72 | 28 | 9.5±1.2 | 7.7±0.4 | 5.9±0.8 | 36±15 | 40±16 | 47±10 | binding to the cells, more intensive than amphiphilic homologue [10]: 50%; time at which cell-associated radioactivity entered the plateau stage [10]: 2 h; time at which concentration in the second water phase became significant [3]: 6 h

Reference: EP1038532A1, “IMMUNOMODULATOR AND PHARMACEUTICAL COMPOSITIONS WITH ANTITUMOR PROPERTIES, AND A FOOD ADDITIVE” (Kaljuzhin, Oleg Vitallievich, priority 1997, dated 1998)
